From PubChem BioAssay (NCI)
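Following 48 hours of exposure in 96-well plates, responses at five concentrations were used to interpolate endpoints linearly. TGI: total growth inhibition.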

Columns and labels:
Test in all cases: DTP human tumour cell line panel, 48 h
786-0 renal = test system: 786-0 renal
A498 renal = test system: A498 renal
A549 NSCLC = test system: A549 NSCLC
ACHN renal = test system: ACHN renal
BT-549 breast = test system: BT-549 breast
CAKI-1 renal = test system: CAKI-1 renal
CCRF-CEM leukemia = test system: CCRF-CEM leukemia
COLO 205 colon = test system: COLO 205 colon
DU-145 prostate = test system: DU-145 prostate
EKVX NSCLC = test system: EKVX NSCLC
HCC-2998 colon = test system: HCC-2998 colon
HCT-116 colon = test system: HCT-116 colon
HCT-15 colon = test system: HCT-15 colon
HL-60(TB) leukemia = test system: HL-60(TB) leukemia
HOP-62 NSCLC = test system: HOP-62 NSCLC
HOP-92 NSCLC = test system: HOP-92 NSCLC
HS 578T breast = test system: HS 578T breast
HT29 colon = test system: HT29 colon
IGROV1 ovarian = test system: IGROV1 ovarian
K-562 leukemia = test system: K-562 leukemia
KM12 colon = test system: KM12 colon
LOX IMVI melanoma = test system: LOX IMVI melanoma
M14 melanoma = test system: M14 melanoma
MALME-3M melanoma = test system: MALME-3M melanoma
MCF7 breast = test system: MCF7 breast
MDA-MB-231 breast = test system: MDA-MB-231 breast
MDA-MB-435 = test system: MDA-MB-435
MDA-N = test system: MDA-N
MOLT-4 leukemia = test system: MOLT-4 leukemia
NCI-H226 lung = test system: NCI-H226 lung
NCI-H23 lung = test system: NCI-H23 lung
NCI-H460 lung = test system: NCI-H460 lung
NCI-H522 lung = test system: NCI-H522 lung
NCI/ADR-RES ovarian = test system: NCI/ADR-RES ovarian
OVCAR-3 ovarian = test system: OVCAR-3 ovarian
OVCAR-4 ovarian = test system: OVCAR-4 ovarian
OVCAR-5 ovarian = test system: OVCAR-5 ovarian
OVCAR-8 ovarian = test system: OVCAR-8 ovarian
PC-3 prostate = test system: PC-3 prostate
RPMI-8226 leukemia = test system: RPMI-8226 leukemia
RXF 393 renal = test system: RXF 393 renal
SF-268 CNS = test system: SF-268 CNS
SF-295 CNS = test system: SF-295 CNS
SF-539 CNS = test system: SF-539 CNS
SK-MEL-2 melanoma = test system: SK-MEL-2 melanoma
SK-MEL-28 melanoma = test system: SK-MEL-28 melanoma
SK-MEL-5 melanoma = test system: SK-MEL-5 melanoma
SK-OV-3 ovarian = test system: SK-OV-3 ovarian
SN12C renal = test system: SN12C renal
SNB-19 CNS = test system: SNB-19 CNS
SNB-75 CNS = test system: SNB-75 CNS
SR leukemia = test system: SR leukemia
SW-620 colon = test system: SW-620 colon
T-47D breast = test system: T-47D breast
TK-10 renal = test system: TK-10 renal
U251 CNS = test system: U251 CNS
UACC-257 melanoma = test system: UACC-257 melanoma
UACC-62 melanoma = test system: UACC-62 melanoma
UO-31 renal = test system: UO-31 renal

**Q.** Which results are given for `CC(C)=CCc1c(O)c(CC=C(C)C)c2oc(-c3ccc(O)cc3O)c(CC=C(C)C)c(=O)c2c1O`?
**A.** TGI (786-0 renal): 21.4 µM; TGI (A498 renal): 27.3 µM; TGI (A549 NSCLC): 24.2 µM; TGI (ACHN renal): 20.9 µM; TGI (BT-549 breast): 21.6 µM; TGI (CAKI-1 renal): 25.4 µM; TGI (CCRF-CEM leukemia): 5.83 µM; TGI (COLO 205 colon): > 59.5 µM; TGI (DU-145 prostate): 25.2 µM; TGI (EKVX NSCLC): 27.9 µM; TGI (HCC-2998 colon): 11.7 µM; TGI (HCT-116 colon): 17 µM; TGI (HCT-15 colon): 23.8 µM; TGI (HL-60(TB) leukemia): 21.7 µM; TGI (HOP-62 NSCLC): 23.4 µM; TGI (HOP-92 NSCLC): 23 µM; TGI (HS 578T breast): 45.6 µM; TGI (HT29 colon): 22.8 µM; TGI (IGROV1 ovarian): 23.6 µM; TGI (K-562 leukemia): 27.4 µM; TGI (KM12 colon): 16.7 µM; TGI (LOX IMVI melanoma): 22.5 µM; TGI (M14 melanoma): 22.5 µM; TGI (MALME-3M melanoma): 33.4 µM; TGI (MCF7 breast): 18.3 µM; TGI (MDA-MB-231 breast): 27.6 µM; TGI (MDA-MB-435): 16.7 µM; TGI (MDA-N): 20.4 µM; TGI (MOLT-4 leukemia): 14.6 µM; TGI (NCI-H226 lung): 47.6 µM; TGI (NCI-H23 lung): 22 µM; TGI (NCI-H460 lung): 17.8 µM; TGI (NCI-H522 lung): 24.9 µM; TGI (NCI/ADR-RES ovarian): 53.4 µM; TGI (OVCAR-3 ovarian): 19.6 µM; TGI (OVCAR-4 ovarian): 18.1 µM; TGI (OVCAR-5 ovarian): 28.3 µM; TGI (OVCAR-8 ovarian): 19.7 µM; TGI (PC-3 prostate): 18.4 µM; TGI (RPMI-8226 leukemia): 10.9 µM; TGI (RXF 393 renal): 14.6 µM; TGI (SF-268 CNS): > 53.2 µM; TGI (SF-295 CNS): 20.3 µM; TGI (SF-539 CNS): 32.7 µM; TGI (SK-MEL-2 melanoma): 12.8 µM; TGI (SK-MEL-28 melanoma): 26.6 µM; TGI (SK-MEL-5 melanoma): 23 µM; TGI (SK-OV-3 ovarian): 26.2 µM; TGI (SN12C renal): 21.1 µM; TGI (SNB-19 CNS): 25.6 µM; TGI (SNB-75 CNS): 22.7 µM; TGI (SR leukemia): 9.88 µM; TGI (SW-620 colon): 23.3 µM; TGI (T-47D breast): 12.8 µM; TGI (TK-10 renal): 21.2 µM; TGI (U251 CNS): 22.8 µM; TGI (UACC-257 melanoma): 25.6 µM; TGI (UACC-62 melanoma): 20.3 µM; TGI (UO-31 renal): 21.1 µM

**Q.** `Cc1cc2[nH]c(Cl)c(/C=C3\C(=O)Nc4ccccc43)c2cc1O` was tested. Which TGI (786-0 renal) did it give?
**A.** The TGI was > 37.8 µM.

**Q.** What about the TGI (A498 renal) of the same molecule?
**A.** Its TGI is 16.1 µM.

**Q.** What about the TGI (A549 NSCLC) of the same molecule?
**A.** The TGI was 21.6 µM.

**Q.** And the TGI (ACHN renal)?
**A.** The TGI was 21.6 µM.

**Q.** What about the TGI (BT-549 breast) of the same molecule?
**A.** The TGI was 25 µM.

**Q.** And the TGI (CAKI-1 renal)?
**A.** The TGI was 19.7 µM.

**Q.** What about the TGI (CCRF-CEM leukemia) of the same molecule?
**A.** Its TGI is 9.32 µM.

**Q.** What about the TGI (COLO 205 colon) of the same molecule?
**A.** The TGI was 30.1 µM.

**Q.** What about the TGI (DU-145 prostate) of the same molecule?
**A.** The TGI was 12.9 µM.

**Q.** What about the TGI (EKVX NSCLC) of the same molecule?
**A.** The TGI was 18 µM.

**Q.** What about the TGI (HCC-2998 colon) of the same molecule?
**A.** Its TGI is 16 µM.

**Q.** What about the TGI (HCT-116 colon) of the same molecule?
**A.** The TGI was > 36.7 µM.

**Q.** What about the TGI (HCT-15 colon) of the same molecule?
**A.** Its TGI is 23.3 µM.

**Q.** What about the TGI (HL-60(TB) leukemia) of the same molecule?
**A.** Its TGI is 6.16 µM.

**Q.** And the TGI (HOP-62 NSCLC)?
**A.** The TGI was 25.9 µM.

**Q.** What about the TGI (HOP-92 NSCLC) of the same molecule?
**A.** Its TGI is 22.8 µM.

**Q.** And the TGI (HS 578T breast)?
**A.** Its TGI is > 100 µM.

**Q.** And the TGI (HT29 colon)?
**A.** Its TGI is 19.5 µM.

**Q.** And the TGI (IGROV1 ovarian)?
**A.** Its TGI is 10.9 µM.

**Q.** And the TGI (K-562 leukemia)?
**A.** The TGI was 18.8 µM.

**Q.** What about the TGI (KM12 colon) of the same molecule?
**A.** The TGI was 17.1 µM.

**Q.** What about the TGI (LOX IMVI melanoma) of the same molecule?
**A.** The TGI was 40 µM.

**Q.** What about the TGI (M14 melanoma) of the same molecule?
**A.** Its TGI is 17 µM.

**Q.** And the TGI (MALME-3M melanoma)?
**A.** Its TGI is 16.3 µM.

**Q.** And the TGI (MCF7 breast)?
**A.** Its TGI is 16.5 µM.

**Q.** And the TGI (MDA-MB-231 breast)?
**A.** Its TGI is 15.9 µM.

**Q.** And the TGI (MDA-MB-435)?
**A.** Its TGI is 1.18 µM.

**Q.** And the TGI (MDA-N)?
**A.** Its TGI is 1.97 µM.

**Q.** What about the TGI (MOLT-4 leukemia) of the same molecule?
**A.** Its TGI is 32.9 µM.

**Q.** And the TGI (NCI-H226 lung)?
**A.** Its TGI is 4.31 µM.

**Q.** What about the TGI (NCI-H23 lung) of the same molecule?
**A.** Its TGI is 10.5 µM.

**Q.** And the TGI (NCI-H460 lung)?
**A.** The TGI was 15 µM.

**Q.** And the TGI (NCI-H522 lung)?
**A.** Its TGI is 4.66 µM.

**Q.** And the TGI (NCI/ADR-RES ovarian)?
**A.** The TGI was > 48.9 µM.

**Q.** What about the TGI (OVCAR-3 ovarian) of the same molecule?
**A.** The TGI was 26.7 µM.

**Q.** What about the TGI (OVCAR-4 ovarian) of the same molecule?
**A.** The TGI was 25.9 µM.

**Q.** What about the TGI (OVCAR-5 ovarian) of the same molecule?
**A.** The TGI was 20.1 µM.

**Q.** What about the TGI (OVCAR-8 ovarian) of the same molecule?
**A.** The TGI was 25.8 µM.

**Q.** What about the TGI (PC-3 prostate) of the same molecule?
**A.** Its TGI is 12.8 µM.

**Q.** What about the TGI (RPMI-8226 leukemia) of the same molecule?
**A.** Its TGI is 9.95 µM.

**Q.** What about the TGI (RXF 393 renal) of the same molecule?
**A.** The TGI was 9.66 µM.

**Q.** What about the TGI (SF-268 CNS) of the same molecule?
**A.** The TGI was 18.2 µM.

**Q.** And the TGI (SF-295 CNS)?
**A.** The TGI was 11.3 µM.

**Q.** What about the TGI (SF-539 CNS) of the same molecule?
**A.** Its TGI is 4.6 µM.

**Q.** And the TGI (SK-MEL-2 melanoma)?
**A.** Its TGI is 12.9 µM.

**Q.** What about the TGI (SK-MEL-28 melanoma) of the same molecule?
**A.** The TGI was 24.2 µM.

**Q.** What about the TGI (SK-MEL-5 melanoma) of the same molecule?
**A.** Its TGI is 12.3 µM.

**Q.** What about the TGI (SK-OV-3 ovarian) of the same molecule?
**A.** The TGI was 19 µM.

**Q.** What about the TGI (SN12C renal) of the same molecule?
**A.** Its TGI is 12.2 µM.

**Q.** And the TGI (SNB-19 CNS)?
**A.** The TGI was 17.2 µM.

**Q.** What about the TGI (SNB-75 CNS) of the same molecule?
**A.** Its TGI is 16.5 µM.

**Q.** What about the TGI (SR leukemia) of the same molecule?
**A.** Its TGI is 4.17 µM.

**Q.** And the TGI (SW-620 colon)?
**A.** Its TGI is 30.7 µM.

**Q.** What about the TGI (T-47D breast) of the same molecule?
**A.** Its TGI is > 56.9 µM.

**Q.** And the TGI (TK-10 renal)?
**A.** The TGI was 23.5 µM.

**Q.** What about the TGI (U251 CNS) of the same molecule?
**A.** The TGI was 14.4 µM.

**Q.** And the TGI (UACC-257 melanoma)?
**A.** Its TGI is 23.6 µM.

**Q.** And the TGI (UACC-62 melanoma)?
**A.** Its TGI is 9.08 µM.

**Q.** And the TGI (UO-31 renal)?
**A.** Its TGI is 17.8 µM.
